What was measured:
Assay in all cases: relative viability (nuclei count vs DMSO), 5 days (fraction); higher = more cells survive
Nelarabine + Crizotinib = compound: COc1nc(N)nc2c1ncn2[C@@H]1O[C@H](CO)[C@@H](O)[C@@H]1O [Nelarabine] + C[C@@H](Oc1cc(-c2cnn(C3CCNCC3)c2)cnc1N)c1c(Cl)ccc(F)c1Cl [Crizotinib] (partner 1 µM)
Summary of the method: (§1)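 Relative viability equals treated-well nuclei counts divided by vehicle-well nuclei counts. Counts came from 4× images of lung cancer cell lines grown in 1536-well plates for 5 days after pin-tool dosing on the day after seeding. Dosing used one drug alone or a fixed anchor-drug dose plus five library-drug doses (not always all listed) in √10 steps, and values are medians of duplicate plates.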

[1] = compound: C=CCn1c(=O)c2cnc(Nc3ccc(N4CCN(C)CC4)cc3)nc2n1-c1cccc(C(C)(C)O)n1 [Adavosertib] + CC(=O)c1c(C)c2cnc(Nc3ccc(N4CCNCC4)cn3)nc2n(C2CCCC2)c1=O [Palbociclib] (partner 0.5 µM)
Summary of the method: as §1

Nelarabine + Linsitinib = compound: COc1nc(N)nc2c1ncn2[C@@H]1O[C@H](CO)[C@@H](O)[C@@H]1O [Nelarabine] + C[C@]1(O)C[C@@H](c2nc(-c3ccc4ccc(-c5ccccc5)nc4c3)c3c(N)nccn32)C1 [Linsitinib] (partner 1 µM)
Summary of the method: as §1

Adavosertib + Navitoclax = compound: C=CCn1c(=O)c2cnc(Nc3ccc(N4CCN(C)CC4)cc3)nc2n1-c1cccc(C(C)(C)O)n1 [Adavosertib] + CC1(C)CCC(c2ccc(Cl)cc2)=C(CN2CCN(c3ccc(C(=O)NS(=O)(=O)c4ccc(N[C@H](CCN5CCOCC5)CSc5ccccc5)c(S(=O)(=O)C(F)(F)F)c4)cc3)CC2)C1 [Navitoclax] (partner 0.5 µM)
Summary of the method: as §1

Row | Cell Line | relative viability (Nelarabine + Crizotinib; first compound 0.01 µM) | relative viability (Nelarabine + Crizotinib; first compound 0.03162 µM) | relative viability (Nelarabine + Crizotinib; first compound 0.1 µM) | relative viability (Nelarabine + Crizotinib; first compound 0.3162 µM) | relative viability (Nelarabine + Crizotinib; first compound 1 µM) | relative viability ([1]; first compound 0.01 µM) | relative viability ([1]; first compound 0.03162 µM) | relative viability ([1]; first compound 0.1 µM) | relative viability ([1]; first compound 0.3162 µM) | relative viability (Nelarabine + Linsitinib; first compound 0.01 µM) | relative viability (Nelarabine + Linsitinib; first compound 0.03162 µM) | relative viability (Nelarabine + Linsitinib; first compound 0.1 µM) | relative viability (Nelarabine + Linsitinib; first compound 0.3162 µM) | relative viability (Nelarabine + Linsitinib; first compound 1 µM) | relative viability (Adavosertib + Navitoclax; first compound 0.01 µM) | relative viability (Adavosertib + Navitoclax; first compound 0.03162 µM) | relative viability (Adavosertib + Navitoclax; first compound 0.1 µM) | relative viability (Adavosertib + Navitoclax; first compound 0.3162 µM)
1 | LU99A | 0.557 | 0.534 | 0.582 | 0.627 | 0.622 | 0.404 | 0.373 | 0.393 | 0.409 | 0.534 | 0.461 | 0.669 | 0.581 | 0.617 | 0.895 | 0.733 | 0.901 | 0.652
2 | NCI-H661 |  | 0.877 | 0.989 | 0.973 | 0.934 | 0.424 | 0.449 | 0.464 | 0.451 | 0.719 | 0.859 | 0.723 | 0.555 | 0.535 |  |  |  | 
3 | SW 900 |  |  |  |  |  | 0.403 | 0.633 | 0.567 | 0.538 |  |  |  |  |  |  |  |  | 
4 | HCC-827 | 0.902 | 0.811 | 0.748 | 0.682 | 0.607 | 0.467 | 0.452 | 0.533 | 0.532 | 0.922 | 0.826 | 0.877 | 0.772 | 0.666 | 1.06 | 1.07 | 1.18 | 0.993
5 | A-427 | 1.02 | 0.636 | 0.872 | 0.957 | 0.893 | 0.517 | 0.567 | 0.538 | 0.52 | 1.03 | 1.12 | 1.11 | 1.15 | 1.06 | 0.94 | 0.908 | 0.959 | 0.895
6 | EBC-1 | 0.157 | 0.178 | 0.182 | 0.235 | 0.194 |  |  |  |  | 0.99 | 1.13 | 0.929 | 0.91 | 0.939 | 0.416 | 0.413 | 0.448 | 0.205
7 | NCI-H2009 | 1.12 | 0.99 | 0.971 | 1.08 | 1.05 | 0.195 | 0.2 | 0.258 | 0.215 | 1.29 | 1.26 | 1.14 | 1.23 | 1.19 | 1.14 | 1.18 | 1.21 | 1.23
8 | EPLC-272H | 1.01 | 0.928 | 1 | 0.946 | 0.861 | 0.331 | 0.32 | 0.35 | 0.317 | 1.35 | 1.11 | 1.18 | 1.09 | 1.21 | 1.09 | 0.987 | 0.983 | 0.861
9 | LC-2-ad | 0.497 | 0.404 | 0.444 | 0.421 | 0.447 | 0.535 | 0.467 | 0.55 | 0.519 | 0.919 | 0.832 | 0.823 | 0.758 | 0.797 | 0.452 | 0.411 | 0.392 | 0.216
10 | HCC-366 | 0.594 | 0.222 | 0.51 | 1.01 | 0.618 | 0.396 | 0.388 | 0.471 | 0.329 | 1.21 | 0.427 | 0.551 | 0.785 | 0.769 | 0.983 | 1.07 | 1.12 | 1.08

Reference: the supplement of paper PMC10307832
